# In PubChem BioAssay AID449762 (Southern Research Specialized Biocontainment Screening …, 2010):
# Records with an inconclusive call do not appear.
# Test system: M. tuberculosis H37Rv growth inhibition, 7H9 media
# Experiment: M. tuberculosis growth inhibition, HTS (AID 449762);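 further: bacterial growth assessed after seven days of incubation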
# Conditions: measured here: IC90 growth inhibition
row,Structure (SMILES),IC90
1,CCCc1ccc(NC(=O)C2CCN(c3cnccn3)CC2)cc1,78.7 µM
2,C/C(=N\Nc1ccc([N+](=O)[O-])cc1)c1cccc(N)c1,88.3 µM
3,c1ccc2c(c1)CCN(c1nc(CN3CCOCC3)nc3sc4c(c13)CCCC4)C2,33.6 µM
4,Cc1cc(Nc2cc(Cl)nc(Sc3ccc(NC(=O)C4CC4)cc3)n2)n[nH]1,45.1 µM
5,O=C(/C=C/c1cn(-c2ccccc2)nc1-c1cccnc1)c1ccco1,46.6 µM
6,CCOC(=O)c1ccc(NC(=O)C(C)Sc2nc(O)c(-c3ccccc3)c(=O)[nH]2)cc1 (configuration not stated),22.6 µM
7,O=C1NCC(c2ccccc2)C1C(=O)N/N=C\c1ccc(-c2ccc(Cl)c(Cl)c2)o1 (configuration not stated),> 100 µM
8,COc1ccc(OCC(=O)Nc2c(C(=O)N(CCN(C)C)Cc3ccco3)oc3ccccc23)cc1,27.5 µM
9,CC(=O)CCSc1ncnc2sc(-c3ccccc3)cc12,> 100 µM
10,Cc1sc2ncnc(N3CCC(C(=O)N(CC(C)C)c4nc5ccccc5s4)CC3)c2c1C,> 100 µM
11,O=C(Oc1ccc2ccccc2c1)c1cncc(Br)c1,60.3 µM
12,C=C1c2c(Cl)ccc(O)c2C(O)=C2C(=O)[C@]3(O)C(O)=C(C(N)=O)C(=O)[C@@H](N(C)C)[C@@H]3[C@@H](O)C12 (some centres not stated),4.88 µM
13,Cc1ccc(OC(=O)c2oc3ccc(F)cc3c2C)c(C)c1,18.6 µM
14,Cc1cc(C)cc(NC(=O)c2ccc(Cn3nc(C)c(Cl)c3C)o2)c1,41.9 µM
15,O=C(CSc1nc2ccccc2nc1N1CCOCC1)N1CCN(c2ccccc2)CC1,13.2 µM
16,CCCCNC(=S)N(C)/N=C/c1ccc2c(c1)OCO2,20.4 µM
17,Oc1ccc(Nc2nc(-c3ccc4ccccc4c3)cs2)cc1,> 100 µM
18,Oc1cc(Nc2ccccc2)cc2cccnc12,26.6 µM
19,CCCSc1nn2c(=O)c3ccccc3nc2s1,25.2 µM
20,c1ccc(CC2CCN(C3=Nc4cccc5cccc3c45)CC2)cc1,38.1 µM
21,c1ccc2c(c1)CCN(c1nc3cc4c(cc3s1)OCCO4)C2,16.9 µM
22,COC(=O)CSc1ncnc2c1sc1nc3c(cc12)COC(C)(C)C3,17.3 µM

row,Structure (SMILES),IC90
1,COC(=O)c1c(NC(=O)C(=O)N2CCCC2)sc2c1CC(C)(C)OC2,27.7 µM
2,CCOC(=O)Cn1c(-c2ccccc2)ccc(C#N)c1=O,> 100 µM
3,CCOc1ccc(C2c3[nH]c4ccccc4c3C[C@H]3C(=O)N(C4CCN(Cc5ccccc5)CC4)CC(=O)N23)cc1OC (some centres not stated),29.7 µM
4,CCN1CCN(Cc2ccc(NC(=O)c3cc(NC(=O)c4cncc(-c5cccs5)c4)cc(OC)c3)cc2C(F)(F)F)CC1,14.6 µM
5,CC(OC(=O)c1cnc2ccccc2n1)c1ccccc1Cl (configuration not stated),37 µM
6,CCOP(=O)(OCC)/C(=C/N1CCCCC1)NC(=O)c1ccccc1,> 100 µM
7,CC(Sc1nnc(NC2CCCCC2)s1)C(=O)Nc1ccc2c(c1)C(=O)c1ccccc1C2=O (configuration not stated),12.6 µM
8,O=C(COC(=O)C1=COCCO1)NCc1ccc(Cl)cc1,> 100 µM
9,COC(=O)c1ccc(-n2cnc3ccccc32)nc1,45.1 µM
10,O=C(C1=C[C@@H](c2csc3ccccc23)C[C@@H](OCCCCO)O1)N1CCN(Cc2ccc3c(c2)OCO3)CC1,47.8 µM
11,CCOC(=O)c1c(CC(C)C)csc1NC(=O)CCl,7.5 µM
12,O=[N+]([O-])c1ccc(COc2ccc(-c3[nH]ncc3-c3ccc(Cl)cc3)c(O)c2)cc1,> 100 µM
13,COc1cccc(-c2cc3nc4c(c(NCC(C)(C)CN(C)C)n3n2)CCCC4)c1,28.2 µM
14,CSc1nn(-c2ccc(C(=O)OCC(=O)NC(=O)NC(C)C)cc2)c(=S)s1,25.9 µM
15,COCCNC(=S)N/N=C(\C)c1ccc(OC)cc1,49.4 µM
16,Cc1ccc(NC(=O)Cn2ccsc2=N)c([N+](=O)[O-])c1,12.7 µM
17,CCCCCCCCCCC[N+](C)(C)CC/C=C1/c2ccccc2Sc2ccc(Cl)cc21,8.09 µM
18,CCOC(=O)c1cnc(SC2CCc3ccccc3C2=O)nc1N (configuration not stated),88.7 µM
19,Cc1ccccc1Cn1cc(NC(=O)c2noc(C(C)C)c2[N+](=O)[O-])cn1,8.72 µM
20,CO[C@@]12[C@H](COC(N)=O)C3=C(C(=O)C(C)=C(N)C3=O)N1C[C@@H]1N[C@@H]12,69.5 µM
21,CS(=O)(=O)c1nc(-c2ccccc2)cc(C(F)(F)F)n1,18.7 µM
22,CCCCn1cnc2c(c(-c3ccccc3)c(-c3ccccc3)n2Cc2ccco2)c1=N,97.4 µM

row,Structure (SMILES),IC90
1,Cc1ncsc1CCOC(=O)c1ccc([N+](=O)[O-])cc1,> 100 µM
2,Cc1ccc(C(=O)OCc2nnc(-c3ccccc3)o2)s1,33.5 µM
3,COc1ccc(-c2nnc(SCC(=O)N3CCc4ccccc4C3)o2)cc1,29.2 µM
4,COC(=O)C(C)Oc1cc(C)ccc1COc1ccc(-n2nc(C)n(C(F)F)c2=O)cc1 (configuration not stated),32.9 µM
5,Cc1ccccc1NC(=O)Cc1nc(COC(=O)/C=C/c2ccccc2)cs1,63 µM
6,Cc1ccc(NC(=O)C2C3/C=C\CCCCC32)cc1C (configuration not stated),3.29 µM
7,c1ccc(Cn2c(CNc3nc4ccccc4n3CCN3CCCCC3)nc3ccccc32)cc1,43.9 µM
8,COc1ccc(-c2cc(-c3ccccc3)c(C#N)c(S(C)=O)n2)cc1 (configuration not stated),29 µM
9,CC1(C)CC(=O)C2=C(C1)NC(Nc1nc3ccccc3o1)=NC2c1ccccn1 (configuration not stated),2.31 µM
10,COc1cnc(-c2ccccn2)nc1Oc1ccc(Cl)c2ccccc12,2.86 µM
11,CCOC(=O)CNc1ccc(C(=O)OCC)cc1[N+](=O)[O-],22.6 µM
12,O=C1NCN(c2ccccc2)C12CCN(CCCC(c1ccc(F)cc1)c1ccc(F)cc1)CC2,47.1 µM
13,CC(C)COCc1ccc(O)c2ncccc12,2.35 µM
14,CCCSC1=C(C#N)C(c2ccc(Cl)cc2Cl)CC(=O)N1 (configuration not stated),> 25 µM
15,Cc1ccc2c(c1)Oc1ccc(NC(=O)CCl)cc1C(=O)N2,> 100 µM
16,CC(C)(C)OC(=O)NNc1c2ccccc2nc2ccccc12,25.7 µM
17,C/C(O)=C\c1nc2ccccc2oc1=O,0.86 µM
18,Cc1cc(C=C2C(=O)NC(=S)NC2=O)c(C)n1C1CCCC1,47.2 µM
19,CC1(c2nnc(-c3ccncc3)o2)CC(c2ccccc2)=NO1 (configuration not stated),> 100 µM
20,COc1ccc(C2CC2/C(C)=N/OC(=O)c2ccc(F)cc2)cc1 (configuration not stated),51.6 µM
21,Cc1cc(=O)oc2c(C)c(OCC(=O)N3CCN(C(=O)C4COc5ccccc5O4)CC3)ccc12 (configuration not stated),86.1 µM
22,CCN(CCNCC(O)COc1ccccc1C(C)C)c1cccc(C)c1 (configuration not stated),28.1 µM

row,Structure (SMILES),IC90
1,COC(=O)c1ccc(COC(=O)CCc2nc(-c3ccccc3)c(-c3ccccc3)o2)cc1,> 100 µM
2,CN(C)[C@@H]1C(=O)C(C(N)=O)=C(O)[C@@]2(O)C(=O)C3=C(O)c4c(O)cccc4[C@@](C)(O)C3C[C@@H]12 (some centres not stated),15 µM
3,O=C(CSC1=Nc2ccccc2C2=NC(c3ccccc3)C(=O)N12)NC1CCCCC1 (configuration not stated),1.29 µM
4,CCCCNC(=S)N/N=C/c1cccc(OCC)c1O,6.79 µM
5,Cc1ccc(S(=O)(=O)n2ccc3c(OCCOCCNCc4ccc(F)cc4)cccc32)cc1,25.5 µM
6,Nc1c2c(nc3ccn(Cc4ccccc4)c(=O)c13)CCC2,33.6 µM
7,O=C(N/N=C/c1ccc(Br)s1)c1cccs1,> 100 µM
8,CCOC(=O)c1ccc2c(c1)C(=O)N(C1CCCCC1)C2=O,> 100 µM
9,COC(=O)c1ccc(/C=C/c2c(-c3ccsc3)oc3ccc(N4CCOCC4)cc23)cc1,41.2 µM
10,CCOC(=O)Cc1csc(NC(=O)c2c(O)c3c(n(CC(C)C)c2=O)CCCC3)n1,72 µM
11,CCOC(=O)C1CCCN(c2ncnc3c2cnn3-c2ccc(OC)cc2)C1 (configuration not stated),10.7 µM
12,COc1ccc(-c2nnc(NC(=O)c3ccc([N+](=O)[O-])o3)o2)c(OC)c1,3.04 µM
13,Cn1nc(-c2ccc(N3CCCCC3)c(NC(=O)c3ccco3)c2)c2ccccc2c1=O,16.1 µM
14,CC(C)(C)c1nc2sc3c(c2c(=O)o1)CCCC3,> 100 µM
15,O=C(Oc1ccccc1-c1nnco1)c1ccc(Cl)cc1,44.7 µM
16,O=C(CSc1ccccn1)Nc1nonc1[N+](=O)[O-],2.25 µM
17,CN(C)N=Nc1nc[nH]c1C(N)=O,6.76 µM
18,Cc1nn(Cc2ccccc2Cl)c2sc(C(=O)NCCCn3ccnc3)cc12,49.5 µM
19,Clc1cccc(-c2cc3nc4c(c(NCc5ccco5)n3n2)CCCC4)c1,17.4 µM
20,CN(CCO)c1cc(Sc2nc3ccccc3s2)c2nonc2c1[N+](=O)[O-],> 100 µM
21,Cc1cc(C)n2nc(/C(C#N)=C/c3ccccn3)c(C#N)c2n1,17.6 µM
